Data published in the supplement of paper PMC10307832.

How the values were obtained:
Test in all cases: relative viability (nuclei count vs DMSO), 5 days (fraction); higher = more cells survive
[1] = compound: NC(=O)c1ccc(N(C(N)=O)c2c(F)cccc2F)nc1-c1ccc(F)cc1F [VX-702] + NC(=O)Nc1cc(-c2cccc(F)c2)sc1C(=O)N[C@H]1CCCNC1 [AZD7762] (partner 0.2 µM)
Procedure, shortened: (§1)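 Relative viability divides the nuclei count in treated wells by that in vehicle wells. Lung cancer cell lines were seeded in 1536-well plates, dosed by pin tool the next day, and fixed and stained after 5 days in one step with final 0.05% Triton X-100, 1% formaldehyde and 1 ug/ml Hoechst. Dosing was a single drug or a fixed anchor-drug dose plus five library-drug doses (not always all listed) in √10 steps, and values are medians of duplicate plates imaged at 4×.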

[2] = compound: CC(C)(C)c1nc(-c2cccc(NS(=O)(=O)c3c(F)cccc3F)c2F)c(-c2ccnc(N)n2)s1 [Dabrafenib] + COc1cccc2cc(-c3nc([C@H]4CC[C@H](C(=O)O)CC4)n4ncnc(N)c34)[nH]c12 [OSI-027] (partner 0.5 µM)
Procedure, shortened: as §1

[3] = compound: NC(=O)c1ccc(N(C(N)=O)c2c(F)cccc2F)nc1-c1ccc(F)cc1F [VX-702] + CS(=O)(=O)CCNCc1ccc(-c2ccc3ncnc(Nc4ccc(OCc5cccc(F)c5)c(Cl)c4)c3c2)o1 [Lapatinib] (partner 2 µM)
Procedure, shortened: as §1

[4] = compound: NC(=O)c1ccc(N(C(N)=O)c2c(F)cccc2F)nc1-c1ccc(F)cc1F [VX-702] + CCNC(=O)c1noc(-c2cc(C(C)C)c(O)cc2O)c1-c1ccc(CN2CCOCC2)cc1 [Luminespib] (partner 0.01 µM)
Procedure, shortened: as §1

Row | Cell Line | relative viability ([1]; first compound 0.02 µM) | relative viability ([1]; first compound 0.2 µM) | relative viability ([1]; first compound 0.6325 µM) | relative viability ([1]; first compound 2 µM) | relative viability ([2]; first compound 0.003 µM) | relative viability ([2]; first compound 0.009487 µM) | relative viability ([2]; first compound 0.03 µM) | relative viability ([2]; first compound 0.09487 µM) | relative viability ([2]; first compound 0.3 µM) | relative viability ([3]; first compound 0.02 µM) | relative viability ([3]; first compound 0.2 µM) | relative viability ([3]; first compound 0.6325 µM) | relative viability ([3]; first compound 2 µM) | relative viability ([4]; first compound 0.02 µM) | relative viability ([4]; first compound 0.2 µM) | relative viability ([4]; first compound 0.6325 µM) | relative viability ([4]; first compound 2 µM)
1 | NCI-H1651 | 0.474 | 0.429 | 0.468 | 0.455 | 0.724 | 0.666 | 0.748 | 0.714 | 0.736 | 1.04 | 0.929 | 0.847 | 0.963 | 0.979 | 0.891 | 0.921 | 1.08
2 | NCI-H1666 | 0.925 | 0.837 | 0.922 | 0.693 | 0.805 | 0.869 | 0.833 | 0.797 | 0.968 | 0.828 | 0.583 | 0.711 | 0.438 | 0.954 |  | 1.07 | 1.01
3 | NCI-H1734 | 0.561 | 0.448 | 0.521 | 0.465 |  | 0.655 | 0.471 | 0.496 | 0.502 | 0.541 | 0.961 | 1.05 | 0.917 | 0.225 | 0.228 | 0.173 | 0.203
4 | NCI-H1755 | 0.456 | 0.442 | 0.447 | 0.367 | 0.668 | 0.672 | 0.591 | 0.661 | 0.701 | 1.08 | 1.02 | 1.09 | 1.09 | 0.432 | 0.498 | 0.315 | 0.476
5 | NCI-H1792 | 0.635 | 0.669 | 0.707 | 0.706 |  | 0.749 | 0.618 | 0.737 | 0.753 | 0.965 | 0.811 | 0.97 | 1.08 | 0.331 | 0.355 | 0.376 | 0.523
6 | NCI-H1793 | 0.663 |  | 0.542 | 0.379 |  | 0.393 |  |  | 0.309 | 0.752 | 0.59 | 0.817 | 0.987 | 0.165 | 0.217 | 0.213 | 0.192
7 | NCI-H1915 | 0.697 | 0.728 | 0.712 | 0.718 | 0.572 | 0.565 | 0.486 | 0.37 | 0.381 | 1.05 | 1 | 1 | 1.07 | 0.84 | 0.739 | 0.765 | 0.916
8 | NCI-H1944 | 0.565 | 0.491 | 0.557 | 0.358 | 0.356 | 0.433 | 0.39 | 0.505 | 0.439 | 0.903 | 0.774 | 0.878 | 0.789 | 0.73 | 0.713 | 0.771 | 0.718
9 | NCI-H1975 | 0.663 | 0.741 | 0.763 | 0.815 | 0.657 | 0.728 | 0.805 | 0.535 | 0.581 | 0.925 | 1.03 | 0.961 | 1.22 | 0.198 | 0.275 | 0.233 | 0.246
10 | NCI-H1993 | 0.434 | 0.694 | 0.736 | 0.65 | 0.468 | 0.498 | 0.433 | 0.565 | 0.56 | 0.811 | 0.827 | 0.827 | 0.743 | 0.645 | 0.741 | 0.777 | 0.818
11 | NCI-H2085 | 1.04 | 1.01 | 1.06 | 1.03 | 0.355 | 1.06 | 0.675 | 0.616 | 0.859 | 0.81 | 0.739 | 0.767 | 0.808 | 0.479 | 0.462 | 0.477 | 0.41
12 | NCI-H2087 | 1.53 | 1.35 | 1.54 | 1.34 |  | 0.541 | 0.682 | 0.622 | 0.454 | 1.28 | 1.1 | 1.1 | 1.16 | 0.162 | 0.141 | 0.169 | 0.138
13 | NCI-H2126 | 0.995 | 0.979 | 1.02 | 1.05 | 0.492 | 0.787 | 0.717 | 0.609 | 0.954 | 0.752 | 0.763 | 0.74 | 0.824 | 0.879 | 0.918 | 0.834 | 0.918
14 | NCI-H2170 | 1.05 | 0.834 | 1.08 | 0.941 | 0.749 | 0.698 | 0.589 | 0.745 | 0.684 | 0.278 | 0.284 | 0.273 | 0.299 | 0.413 | 0.638 | 0.52 | 0.804
15 | NCI-H2347 | 0.746 | 0.8 | 0.787 | 0.699 |  | 0.514 | 0.254 | 0.394 | 0.416 | 0.996 | 0.813 | 0.891 | 0.902 | 0.446 |  | 0.909 | 0.552
16 | NCI-H2405 | 0.822 | 0.766 | 0.784 | 0.826 |  | 0.696 |  | 0.548 | 0.626 | 1.23 | 0.761 | 1.02 | 1.46 | 0.659 | 0.641 | 0.799 | 0.73
17 | NCI-H3122 | 1.07 | 1.05 | 1.03 | 1.01 | 0.919 | 0.967 | 1.07 | 0.925 | 1.06 | 1.07 | 0.977 | 1.04 | 1.03 | 0.0998 | 0.0746 | 0.0992 | 0.0951
18 | PC-3 [JPC-3] | 0.797 | 0.853 | 0.894 | 0.84 | 0.629 | 0.84 | 0.771 | 0.705 | 0.801 | 0.468 | 0.461 | 0.442 | 0.414 | 0.636 | 0.695 | 0.686 | 0.668
19 | PC-14 | 0.411 | 0.353 | 0.37 | 0.265 | 0.438 | 1.13 | 0.775 | 0.804 | 0.794 | 0.363 | 0.245 | 0.311 | 0.29 | 0.138 | 0.171 | 0.158 | 0.175
